Activity calls are given as the source filed them. No rule for the calls is given here.
Tested on: rodent lifetime carcinogenesis bioassay, tumor incidence TD50
Experiment: carcinogenic potency in animals, long-term in vivo studies, CPDB compilation (AID 1745844)

## Nc1ccc(Cl)c(N)c1
mouse, strain B6C3F1, females, in feed, site: any site (literature study), lesion: several types, types named in the paper, dosed 78 weeks, study length 95 weeks
  TD50: 15400 mg/kg/day
mouse, strain B6C3F1, females, in feed, site: liver, lesion: hepatocellular adenoma + hepatocellular carcinoma + neoplastic nodule, dosed 78 weeks, study length 95 weeks
  TD50: 1230 mg/kg/day
mouse, strain B6C3F1, females, in feed, site: liver, lesion: hepatocellular adenoma + hepatocellular carcinoma, dosed 78 weeks, study length 95 weeks
  TD50: 1230 mg/kg/day
mouse, strain B6C3F1, females, in feed, site: liver, lesion: hepatocellular carcinoma, dosed 78 weeks, study length 95 weeks
  TD50: 1780 mg/kg/day
mouse, strain B6C3F1, males, in feed, site: any site (literature study), lesion: several types, types named in the paper, dosed 78 weeks, study length 94 weeks
  TD50: 7320 mg/kg/day (inactive)
mouse, strain B6C3F1, males, in feed, site: liver, lesion: hepatocellular adenoma + hepatocellular carcinoma + neoplastic nodule, dosed 78 weeks, study length 94 weeks
  TD50: 7050 mg/kg/day
rat, strain Fischer 344, females, in feed, site: any site (literature study), lesion: several types, types named in the paper, dosed 78 weeks, study length 104 weeks
  TD50: 479 mg/kg/day
rat, strain Fischer 344, females, in feed, site: liver, lesion: hepatocellular adenoma + hepatocellular carcinoma + neoplastic nodule, dosed 78 weeks, study length 104 weeks
  TD50: 2680 mg/kg/day
rat, strain Fischer 344, females, in feed, site: uterus, lesion: endometrial stromal polyp, dosed 78 weeks, study length 104 weeks
  TD50: 175 mg/kg/day (inactive)
rat, strain Fischer 344, males, in feed, site: adrenal gland, lesion: pheochromocytoma, dosed 78 weeks, study length 104 weeks
  TD50: 315 mg/kg/day
rat, strain Fischer 344, males, in feed, site: any site (literature study), lesion: several types, types named in the paper, dosed 78 weeks, study length 104 weeks
  TD50: 422 mg/kg/day
rat, strain Fischer 344, males, in feed, site: liver, lesion: hepatocellular adenoma + hepatocellular carcinoma + neoplastic nodule, dosed 78 weeks, study length 104 weeks
  TD50: 1570 mg/kg/day

## CCCCCCN(N=O)C(N)=O
rat, strain Fischer 344, females, by gavage, site: forestomach, lesion: one or several types, types not named, dosed 50 weeks, study length 104 weeks
  TD50: 0.848 mg/kg/day
rat, strain Fischer 344, females, by gavage, site: lung, lesion: several types, types named in the paper, dosed 50 weeks, study length 104 weeks
  TD50: 2.06 mg/kg/day
rat, strain Fischer 344, females, by gavage, site: mammary gland, lesion: adenocarcinoma, dosed 50 weeks, study length 104 weeks
  TD50: 1.73 mg/kg/day
rat, strain Fischer 344, females, by gavage, site: uterus, lesion: several types, types named in the paper, dosed 50 weeks, study length 104 weeks
  TD50: 0.579 mg/kg/day
rat, strain Fischer 344, males, by gavage, site: all sites, lesion: mesothelioma, dosed 50 weeks, study length 104 weeks
  TD50: 0.745 mg/kg/day
rat, strain Fischer 344, males, by gavage, site: colon, lesion: one or several types, types not named, dosed 50 weeks, study length 104 weeks
  TD50: 2.27 mg/kg/day
rat, strain Fischer 344, males, by gavage, site: forestomach, lesion: one or several types, types not named, dosed 50 weeks, study length 104 weeks
  carcinogen call: positive
rat, strain Fischer 344, males, by gavage, site: lung, lesion: several types, types named in the paper, dosed 50 weeks, study length 104 weeks
  carcinogen call: positive

## Brc1cc(-c2ccc(Br)c(Br)c2Br)cc(Br)c1Br
rat, strain Sprague-Dawley Spartan, females, in feed, site: any site (literature study), lesion: several types, types named in the paper, dosed 57 weeks, study length 57 weeks
  TD50: 5.91 mg/kg/day (inactive)
rat, strain Sprague-Dawley Spartan, females, in feed, site: liver, lesion: one or several types, types not named, dosed 57 weeks, study length 57 weeks
  carcinogen call: negative (inactive)

## CCCl
mouse, strain B6C3F1, females, inhaled, site: all sites, lesion: malignant lymphoma, histiocytic type + malignant lymphoma, mixed type + malignant lymphoma, lymphocytic type + malignant lymph, dosed 100 weeks, study length 100 weeks
  TD50: 9960 mg/kg/day
mouse, strain B6C3F1, females, inhaled, site: any site (literature study), lesion: several types, types named in the paper, dosed 100 weeks, study length 100 weeks
  TD50: 1380 mg/kg/day
mouse, strain B6C3F1, females, inhaled, site: liver, lesion: hepatocellular adenoma + hepatocellular carcinoma + neoplastic nodule, dosed 100 weeks, study length 100 weeks
  TD50: 7220 mg/kg/day
mouse, strain B6C3F1, females, inhaled, site: liver, lesion: hepatocellular adenoma + hepatocellular carcinoma, dosed 100 weeks, study length 100 weeks
  TD50: 7220 mg/kg/day
mouse, strain B6C3F1, females, inhaled, site: liver, lesion: hepatocellular carcinoma, dosed 100 weeks, study length 100 weeks
  TD50: 7580 mg/kg/day
mouse, strain B6C3F1, females, inhaled, site: lung, lesion: alveolar/bronchiolar adenoma + alveolar/bronchiolar carcinoma, dosed 100 weeks, study length 100 weeks
  TD50: 8640 mg/kg/day
mouse, strain B6C3F1, females, inhaled, site: uterus, lesion: carcinoma, dosed 100 weeks, study length 100 weeks
  TD50: 1810 mg/kg/day
mouse, strain B6C3F1, males, inhaled, site: any site (literature study), lesion: several types, types named in the paper, dosed 100 weeks, study length 100 weeks
  TD50: 10100 mg/kg/day
mouse, strain B6C3F1, males, inhaled, site: liver, lesion: hepatocellular adenoma + hepatocellular carcinoma + neoplastic nodule, dosed 100 weeks, study length 100 weeks
  TD50: 34100 mg/kg/day
mouse, strain B6C3F1, males, inhaled, site: lung, lesion: alveolar/bronchiolar adenoma + alveolar/bronchiolar carcinoma, dosed 100 weeks, study length 100 weeks
  TD50: 9910 mg/kg/day
mouse, strain B6C3F1, males, inhaled, site: lung, lesion: alveolar/bronchiolar adenoma, dosed 100 weeks, study length 100 weeks
  TD50: 12700 mg/kg/day
rat, strain Fischer 344, females, inhaled, site: any site (literature study), lesion: several types, types named in the paper, dosed 102 weeks, study length 105 weeks
  TD50: 2660 mg/kg/day
rat, strain Fischer 344, females, inhaled, site: brain, lesion: astrocytoma, malignant, dosed 102 weeks, study length 105 weeks
  TD50: 21000 mg/kg/day
rat, strain Fischer 344, females, inhaled, site: uterus, lesion: endometrial stromal polyp, dosed 102 weeks, study length 105 weeks
  TD50: 10200 mg/kg/day
rat, strain Fischer 344, males, inhaled, site: any site (literature study), lesion: several types, types named in the paper, dosed 102 weeks, study length 105 weeks
  TD50: 1600 mg/kg/day
rat, strain Fischer 344, males, inhaled, site: liver, lesion: hepatocellular adenoma + hepatocellular carcinoma + neoplastic nodule, dosed 102 weeks, study length 105 weeks
  TD50: 47700 mg/kg/day
rat, strain Fischer 344, males, inhaled, site: skin, lesion: basal-cell carcinoma + sebaceous adenoma + trichoepithelioma, dosed 102 weeks, study length 105 weeks
  TD50: 3210 mg/kg/day
rat, strain Fischer 344, males, inhaled, site: skin, lesion: basal-cell carcinoma, dosed 102 weeks, study length 105 weeks
  TD50: 4970 mg/kg/day

## [O]=[Nb](=[O])[OH]
mouse, strain Charles River CD1, both sexes, in drinking water, site: any site (literature study), lesion: malignant tumor, dosed 135 weeks, study length 135 weeks
  carcinogen call: negative (inactive)
mouse, strain Charles River CD1, both sexes, in drinking water, site: any site (literature study), lesion: one or several types, types not named, dosed 135 weeks, study length 135 weeks
  carcinogen call: negative (inactive)
mouse, strain Charles River CD1, both sexes, in drinking water, site: liver, lesion: one or several types, types not named, dosed 135 weeks, study length 135 weeks
  carcinogen call: negative (inactive)
mouse, strain Charles River CD1, both sexes, in drinking water, site: lung, lesion: one or several types, types not named, dosed 135 weeks, study length 135 weeks
  carcinogen call: negative (inactive)
